For orientation: melting point means the temperature, or range, at which the solid turns liquid.

Each structure is given as a SMILES string. Counter-ions that a name gives are not always drawn.

As to `C[C@@]1(O)[C@H](O)[C@@H](COP2(=O)OCC[C@H](c3ccc(F)c(Br)c3)O2)O[C@H]1n1ccc2c(N)ncnc21` (stereo partly drawn) (as salt: salt) [Compound 16.31], the melting point was in the range of 122 to 125 °C.
The compound `C[C@@]1(O)[C@H](O)[C@@H](COP2(=O)OCC[C@H](c3ccc(Cl)c(Cl)c3)O2)O[C@H]1n1ccc2c(=O)[nH]c(N)nc21` (stereo partly drawn) (as salt: salt) [Compound 17.22, 2-amino-7-(cis-5′-O-[4-(3,4-dichlorophenyl)-2-oxo-1,3,2-dioxaphosphorinan-2-yl]-2′-C methyl-beta-D-ribofuranosyl)-7H-pyrrolo[2,3-d]pyrimidin-4(3H)-one] yielded a melting point of 192 to 195 °C.
Compound `C[C@@]1(O)[C@H](O)[C@@H](COP2(=O)OCC[C@H](c3cncc(Br)c3)O2)O[C@H]1n1ccc2c(=O)[nH]c(N)nc21` (stereo partly drawn) (as salt: salt) [Compound 17.26, 2-amino-7-(cis-5′-O-[4-(5-bromo-pyridin-3-yl)-2-oxo-1,3,2-dioxaphosphorinan-2-yl]-2′-C methyl-beta-D-ribofuranosyl)-7H-pyrrolo[2,3-d]pyrimidin-4(3H)-one] came in with a melting point of 185 to 189 °C.
`C[C@@]1(O)[C@H](O)[C@@H](COP2(=O)OC[C@@H](c3ccccc3)[C@@H](c3ccccc3)O2)O[C@H]1n1ccc2c(N)ncnc21` (stereo partly drawn) (as salt: trifluoroacetic acid salt) [Compound 16.13, 4-amino-7-(cis-5′-O-14,5-cis-diphenyl-2-oxo-1,3,2-dioxaphosphorinan-2-yl]-2′-C-methyl-beta-D-ribofuranosyl)-7H-pyrrolo[2,3-d]pyrimidine trifluoroacetic acid salt] came in with a melting point of 174 to 177 °C.
The compound `C[C@@]1(O)[C@H](O)[C@@H](COP2(=O)O[C@H](c3ccccc3)C[C@H](c3ccccc3)O2)O[C@H]1n1ccc2c(N)ncnc21` (stereo partly drawn) (as salt: trifluoroacetic acid salt) [Compound 16.16, 4-amino-7-(cis-5′-O-[4,6-cis-diphenyl-2-oxo-1,3,2-dioxaphosphorinan-2-yl]-2′-C-methyl-beta-D-ribofuranosyl)-7H-pyrrolo[2,3-d]pyrimidine trifluoroacetic acid salt] registered a melting point of 140 to 143 °C.
`C[C@@]1(O)[C@H](O)[C@@H](CO[P@@]2(=O)O[C@H](c3ccccc3)C[C@H](c3ccccc3)O2)O[C@H]1n1ccc2c(N)ncnc21` (as salt: trifluoroacetic acid salt) [Compound 16.18, 4-amino-7-(trans-5′-O-[4,6-cis-diphenyl-2-oxo-1,3,2-dioxaphosphorinan-2-yl]-2′-C-methyl-beta-D-ribofuranosyl)-7H-pyrrolo[2,3-d]pyrimidine trifluoroacetic acid salt] had a melting point above 220 °C.
The compound `CO[C@@H]1COP(=O)(OC[C@H]2O[C@@H](n3ccc4c(N)ncnc43)[C@](C)(O)[C@@H]2O)O[C@@H]1c1cccc(Cl)c1` (stereo partly drawn) (as salt: trifluoroacetic acid salt) [Compound 16.23] came in with a melting point of 116 to 120 °C.
`CO[C@H]1COP(=O)(OC[C@H]2O[C@@H](n3ccc4c(N)ncnc43)[C@](C)(O)[C@@H]2O)O[C@@H]1c1cccc(Cl)c1` (stereo partly drawn) (as salt: trifluoroacetic acid salt) [Compound 16.24] yielded a melting point of 140 to 143 °C.
For `C[C@@]1(O)[C@H](O)[C@@H](COP2(=O)OCC[C@H](c3ccccn3)O2)O[C@H]1n1ccc2c(N)ncnc21` (stereo partly drawn) (as salt: trifluoroacetic acid salt) [Compound 16.33, 4-amino-7-(cis-5′-O-14-(pyridin-2-yl-2-oxo-1,3,2-dioxaphosphorinan-2-yl]-2′-C-methyl-beta-D-ribofuranosyl)-7H-pyrrolo[2,3-d]pyrimidine trifluoroacetic acid salt], the melting point lay within 88 to 90 °C.
As to `C[C@@]1(O)[C@H](O)[C@@H](COP2(=O)OCC[C@H](c3ccc(Cl)cc3)O2)O[C@H]1n1ccc2c(N)ncnc21` (stereo partly drawn) (as salt: trifluoroacetic acid salt) [Compound 16.35, 4-amino-7-(cis-5′-O-[4-(4-chlorophenyl-2-oxo-1,3,2-dioxaphosphorinan-2-yl]-2′-C-methyl-beta-D-ribofuranosyl)-7H-pyrrolo[2,3-d]pyrimidinetrifluoroacetic acid salt], the melting point lay in the range of 182 to 184 °C.
`C[C@@]1(O)[C@H](O)[C@@H](COP2(=O)OCC[C@H](c3cccc(F)c3F)O2)O[C@H]1n1ccc2c(N)ncnc21` (stereo partly drawn) (as salt: trifluoroacetic acid salt) [Compound 16.36, 4-amino-7-(cis-5′-O-[4-(2,3-difluorophenyl)-2-oxo-1,3,2-dioxaphosphorinan-2-yl]-2′-C-methyl-beta-D-ribofuranosyl)-7H-pyrrolo[2,3-d]pyrimidine trifluoroacetic acid salt] returned a melting point of 177 to 180 °C.
Compound `COc1ccc(F)c([C@H]2CCOP(=O)(OC[C@H]3O[C@@H](n4ccc5c(N)ncnc54)[C@](C)(O)[C@@H]3O)O2)c1` (stereo partly drawn) (as salt: trifluoroacetic acid salt) [Compound 16.37, 4-amino-7-(cis-5′-O-[4-(2-fluoro-5-methoxyphenyl)-2-oxo-1,3,2-dioxaphosphorinan-2-yl]-2′-C-methyl-beta-D-ribofuranosyl)-7H-pyrrolo[2,3-d]pyrimidine trifluoroacetic acid salt] returned a melting point of 80 to 85 °C.
In the case of `C[C@@]1(O)[C@H](O)[C@@H](COP2(=O)OCC[C@H](c3ccc(F)cc3Cl)O2)O[C@H]1n1ccc2c(N)ncnc21` (stereo partly drawn) (as salt: trifluoroacetic acid salt) [Compound 16.38, 4-amino-7-(cis-5′-O-[4-(2-chloro-4-fluorophenyl)-2-oxo-1,3,2-dioxaphosphorinan-2-yl]-2′-C-methyl-beta-D-ribofuranosyl)-7H-pyrrolo[2,3-d]pyrimidine trifluoroacetic acid salt] it was 138 to 141 °C.
To `C[C@@]1(O)[C@H](O)[C@@H](COP2(=O)OCC[C@@H](c3ccccn3)O2)O[C@H]1n1ccc2c(=O)[nH]c(N)nc21` (stereo partly drawn) (as salt: trifluoroacetic acid salt) [Compound 17.8, 2-amino-7-(cis-5′-O-[4-(pyridin-2-yl)-2-oxo-1,3,2-dioxaphosphorinan-2-yl]-2′-C methyl-beta-D-ribofuranosyl)-7H-pyrrolo[2,3-d]pyrimidin-4(3H)-one trifluoroacetic acid salt] belongs 180 to 190 °C.
Compound `C[C@@]1(O)[C@H](O)[C@@H](COP2(=O)OCC[C@@H](c3ccccc3C(F)(F)F)O2)O[C@H]1n1ccc2c(=O)[nH]c(N)nc21` (stereo partly drawn) (as salt: trifluoroacetic acid salt) [Compound 17.9, 2-amino-7-(cis-5-O-[4-(2-trifluoromethylphenyl)-2-oxo-1,3,2-dioxaphosphorinan-2-yl]-2′-C methyl-beta-D-ribofuranosyl)-7H-pyrrolo[2,3-d]pyrimidin-4(3H)-one trifluoroacetic acid salt] showed a melting point of 185 to 188 °C.
In turn, `C[C@@]1(O)[C@H](O)[C@@H](CO[P@]2(=O)OCC[C@H](c3cccc(Cl)c3)O2)O[C@H]1n1ccc2c(=O)[nH]c(N)nc21` (as salt: trifluoroacetic acid salt) [Compound 17.10, 2-amino-7-(cis-5′-O-[4-(R)-(3-chlorophenyl)-2-oxo-1,3,2-dioxaphosphorinan-2-yl]-2′-C methyl-beta-D-ribofuranosyl)-7H-pyrrolo[2,3-d]pyrimidin-4(3H)-one trifluoroacetic acid salt] yielded a melting point of 170 to 180 °C.
Take `C[C@@]1(O)[C@H](O)[C@@H](COP2(=O)OCC[C@H](c3cc(F)cc(F)c3)O2)O[C@H]1n1ccc2c(=O)[nH]c(N)nc21` (stereo partly drawn) (as salt: trifluoroacetic acid salt) [Compound 17.11, 2-amino-7-(cis-5-O-[4-(3,5-difluorophenyl)-2-oxo-1,3,2-dioxaphosphorinan-2-yl]-2-C methyl-beta-D-ribofuranosyl)-7H-pyrrolo[2,3-d]pyrimidin-4(3H)-one trifluoroacetic acid salt]: the melting point was in the range of 182 to 185 °C.
`C[C@@]1(O)[C@H](O)[C@@H](COP2(=O)OC[C@H](c3ccccc3)[C@H](c3ccccc3)O2)O[C@H]1n1ccc2c(=O)[nH]c(N)nc21` (stereo partly drawn) (as salt: trifluoroacetic acid salt) [Compound 17.17, 2-amino-7-(cis-5′-[4,5-cis-diphenyl-2-oxo-1,3,2-dioxaphosphorinan-2-yl]-2-C methyl-beta-D-ribofuranosyl)-7H-pyrrolo[2,3-d]pyrimidin-4(3H)-one trifluoroacetic acid salt]: the melting point is 187 to 190 °C.
Compound `CC1(C)C[C@H](c2ccccc2)OP(=O)(OC[C@H]2O[C@@H](n3ccc4c(=O)[nH]c(N)nc43)[C@](C)(O)[C@@H]2O)O1` (stereo partly drawn) (as salt: trifluoroacetic acid salt) [Compound 17.18, 2-amino-7-(cis-5′-O-[6,6-dimethyl-4-phenyl-2-oxo-1,3,2-dioxaphosphorinan-2-yl]-2′C methyl-beta-D-ribofuranosyl)-7H-pyrrolo[2,3-d]pyrimidin-4(3H)-one trifluoroacetic acid salt] displayed a melting point of 192 to 194 °C.
In the case of `C[C@@]1(O)[C@H](O)[C@@H](COP2(=O)OCC[C@H](c3cccc(F)c3F)O2)O[C@H]1n1ccc2c(=O)[nH]c(N)nc21` (stereo partly drawn) (as salt: trifluoroacetic acid salt) [Compound 17.20, 2-amino-7-(cis-5′-O[4-(2,3-difluorophenyl)-2-oxo-1,3,2-dioxaphosphorinan-2-yl]-2′-C methyl-beta-D-ribofuranosyl)-7H-pyrrolo[2,3-d]pyrimidin-4(3H)-one trifluoroacetic acid salt] it was 215 to 220 °C.
Consider `C[C@@]1(O)[C@H](O)[C@@H](COP2(=O)OCC[C@@H](c3cccc(Cl)c3)O2)O[C@H]1n1cnc2c(N)ncnc21` (stereo partly drawn) (as salt: trifluoroacetic acid salt) [Compound 21.1, cis-5′-O-[4-(S)-(3-chlorophenyl)-2-oxo-1,3,2-dioxaphosphorinan-2-yl]-2′-C-beta-methyl-adenosine trifluoroacetic acid salt], for which the melting point was 125 to 128 °C.

These data come from patent publication US20050182252A1, “Novel 2'-C-methyl nucleoside derivatives” (priority 2004, published 2005).
